From patent publication US20210196838A1, “COMPOUNDS AND COMPOSITIONS FOR POTENTIATION OF TLR AGONISTS” (priority 2018, published 2021)

Experiments:
[1] = tested on: vesicular stomatitis virus-green fluorescent protein (VSV-GFP); format: cell-based
[2] = tested on: rainbow trout gut cells (RT-gut); test: Uptake of fluorescently labelled poly IC in RT-gut cells; format: cell-based; settings: 1 ug/ml, 20 degree treatment, 4 hours
[3] = tested on: viral infection; settings: free agonist dosing provided by Zhao et. al, 2012; cited from earlier work

polyinosinic:polycytidylic acid [poly IC]
equivalent dose in an antiviral assay [1]: 1000 µg/mL
intracellular fluorescence [2]: no fluorescence was detected
dose sufficient to protect mice from viral infection [3]: 20 µg
